Key:
[1] = system: cancer cells; assay: Colony formation assay; assay type: cell-based, human; conditions: treated 3 days, then drug-free medium two weeks
Procedure: Franken N A, et al., Nat Protoc 2006; 1: 2315-9). Cancer cells were plated at 500 cells/well on 6-well plate, and then treated with NSC59984 next day. At 3 days after NSC59984 treatment, cancer cells were cultured with drug-free complete medium for two weeks with fresh medium changed every 3 days. Cells were fixed with 10% formalin and stained with 0.05% crystal violet at the end of two weeks period of cell culture.

[2] = system: γH2AX; assay: Genotoxicity measured by γH2AX; assay type: cell-based, human
Procedure: (§1) Proteins were extracted from cells and electrophoresed through 4-12% SDS-PAGE then transferred to PVDF membranes. The primary antibodies indicated in the figures were incubated with the transferred PVDF in blocking buffer at 4° C. overnight. Antibody binding was detected on PVDF with appropriate IRDye-secondary antibodies (LI-COR Biosciences, USA) by the ODYSSEY infrared imaging system.

[3] = system: mutant p53; assay type: cell-based, human
Procedure: The primary antibodies indicated in the figures were incubated with the transferred PVDF in blocking buffer at 4° C. overnight. Antibody binding was detected on PVDF with appropriate IRDye-secondary antibodies (LI-COR Biosciences, USA) by the ODYSSEY infrared imaging system.

[4] = system: mutant p53; assay: Ubiquitination of mutant p53 (immunoprecipitation); assay type: cell-based, human; conditions: cancer cells treated with NSC59984 and MG132, 16 hr
Procedure: (§2) Five hundred micrograms of cell lysate were incubated with 2 μg of antibody overnight at 4° C. Then, 25 μl of protein A-Sepharose beads were added to the lysates. The immunoprecipitated proteins were eluted from protein A-Sepharose beads by boiling with 2× sample buffer and subjected to SDS-PAGE.
as §1

[5] = biological target: T1, wild-type p53 protein epitope (Homo sapiens, UniProt P04637, R175H); assay: Wild-type p53 conformation with Pab1620 antibody; assay type: cell-based; conditions: RXF393 cells, 24 hr
T1 construct: endogenous in cells; host or cells: RXF393
Procedure: as §2

[6] = biological target: mutant p53 (Homo sapiens, UniProt P04637, P309S/R273H); assay: Phosphorylation Western blot; assay type: cell-based; parameters: Phosphorylation of mutant p53 at Thr 55 and phosphorylation of MDM2 at Ser166 were found in SW480 cancer cells; endogenous in cells; host or cells: SW480; conditions: SW480 cells
Procedure: as §1

Q: Which results are given for `CN1CCN(C(=O)/C=C/c2ccc([N+](=O)[O-])o2)CC1` [NSC59984, (E)-1-(4-methylpiperazin-1-yl)-3-(5-nitrofuran-2-yl)prop-2-en-1-one]?
A: colony numbers [1]: significantly reduced; γH2AX ([2]; HCT116 cells, 8 hours, 12 μM): increase of γH2AX; γH2AX ([2]; SW480 and DLD-1 cancer cells, within 24 hr, up to 50 μM): No γH2AX was found; total mutant p53 protein degraded ([3]; DLD-1 and RXF393 cells, 50 μM): 25-50%; mutant p53 protein level ([3]; SW480, DLD-1, Hop92 and RXF393 cells, 8 hr, dose-dependent): down-regulated; ubiquitination of mutant p53 [4]: increased ubiquitination; immunohistochemistry staining with Pab1620 [5]: no staining; immunoprecipitation of p53 protein with Pab1620 antibody [5]: no p53 protein bound; phosphorylation of mutant p53 [6]: phosphorylated at Thr55

From patent US10322123B2, “Compound for anti-cancer therapy that acts by targeting GOF mutant P53 and stimulates P73 to restore the P53 pathway signaling” (The Penn State Research Foundation, priority 2014, dated 2019)
